Blank lines part the entries; values can stand above or below the compound they belong to.
Key:
A549 (lung cancer) = assay: MTT cytotoxicity assay, A549; format: cell-based; details: Homo sapiens, 48 h of drug treatment (footnote), average of three experiments
Excerpt: (§1) The N-((1-phenyl-9H-pyrido[3,4-b]indol-3-yl)methyl)cinnamamides (1a-h, 2a-h and 3a-h) have been tested against five human cancer cell lines such as A549 (lung cancer), MCF-7 (breast cancer), B16 (melanoma), HeLa (cervical cancer) and NIH3T3 (mouse embryonic fibroblast cancer). All the cancer cell lines (HeLa, A549, MCF-7 and B16) were procured from National Centre for Cell Sciences (NCCS, Pune, India) and NIH 3T3 cell line was obtained from American Type Culture Collection (Rockville, Md., USA). Stock cells were cultured in DMEM supplemented with 10% Fetal Bovine Serum (FBS), in an humidified atmosphere of 5% CO2 at 37° C. until they are 80% confluent. To study the cytotoxicity of the compounds, after 80% confluence, cells were trypsinized with 0.1% trypsin-EDTA and harvested by centrifugation at 500×g. Serial dilutions of cells were made from 1×10^6 to 1×10^3 cells per mL The cells were seeded in triplicate in a 96 well plate. […]. […] The cell viability was determined by measuring the ability of cells to transform MTT to a purple coloured formazan dye. The absorbance of samples at 570 nm was measured using a UV-Visible spectrophotometer. Percentage of viable cells was calculated by using the formula given below.
Where the OD570 (sample) corresponds to absorbance obtained from the wells treated with compound and OD570 (control) represents the absorbance from the wells in which no compound was added.

B16 (melanoma) = assay: MTT cytotoxicity assay, B16; format: cell-based; details: 48 h of drug treatment (footnote), average of three experiments
Excerpt: as §1
(§2) Where the OD570 (sample) corresponds to absorbance obtained from the wells treated with compound and OD570 (control) represents the absorbance from the wells in which no compound was added. For these compounds results are expressed as half maximal inhibitory concentration (IC50) values and the anticancer activity data of 1a-h, 2a-h and 3a-h are shown in Table 2.

[1] = test system: NIH3T3 (mouse embryonic fibroblast cell line); assay: MTT cytotoxicity assay, NIH3T3; format: cell-based; details: 48 h of drug treatment (footnote), average of three experiments
Excerpt: as §1, §2

MCF-7 (breast cancer) = assay: MTT cytotoxicity assay, MCF-7; format: cell-based; details: Homo sapiens, MCF7, average of three experiments
Excerpt: as §1, §2

HeLa (cervical cancer) = assay: MTT cytotoxicity assay, HeLa; format: cell-based; details: Homo sapiens, of drug treatment (footnote), average of three experiments
Excerpt: as §1, §2

melting point: 148 to 150 °C
Compound: COc1cc(/C=C/C(=O)NCc2cc3c([nH]c4ccccc43)c(-c3cccc(F)c3)n2)cc(OC)c1OC [Compound 1a, (E)-N-((1-(3-fluorophenyl)-9H-pyrido[3,4-b]indol-3-yl)methyl)-3-(3,4,5-trimethoxyphenyl)acrylamide]
IC50 (A549 (lung cancer)): 17.9 ± 0.6 nM
IC50 (B16 (melanoma)): 19.8 ± 0.6 nM
IC50 [1]: 36 ± 1.3 nM
IC50 (MCF-7 (breast cancer)): 16.2 ± 1.5 nM
IC50 (HeLa (cervical cancer)): 23 ± 0.7 nM

melting point: 255 to 258 °C
Compound: O=C(/C=C/c1ccc(Cl)c(Cl)c1)NCc1cc2c([nH]c3ccccc32)c(-c2cccc(F)c2)n1 [Compound 1b, (E)-3-(3,4-dichlorophenyl)-N-((1-(3-fluorophenyl)-9H-pyrido[3,4-b]indol-3-yl)methyl)acrylamide]
IC50 (A549 (lung cancer)): 18 ± 0.8 nM
IC50 (B16 (melanoma)): 18.9 ± 0.4 nM
IC50 [1]: 39 ± 1.1 nM
IC50 (MCF-7 (breast cancer)): 17 ± 1.2 nM
IC50 (HeLa (cervical cancer)): 24.9 ± 0.4 nM

melting point: 258 to 264 °C
Compound: O=C(/C=C/c1ccc(F)cc1)NCc1cc2c([nH]c3ccccc32)c(-c2cccc(F)c2)n1 [Compound 1c, (E)-3-(4-fluorophenyl)-N-((1-(3-fluorophenyl)-9H-pyrido[3,4-b]indol-3-yl)methyl)acrylamide]
IC50 (A549 (lung cancer)): 16.3 ± 0.3 nM
IC50 (B16 (melanoma)): 16.8 ± 0.8 nM
IC50 [1]: 30.8 ± 2.1 nM
IC50 (MCF-7 (breast cancer)): 16.5 ± 1.8 nM
IC50 (HeLa (cervical cancer)): 24.3 ± 0.6 nM

melting point: 215 to 220 °C
Compound: O=C(/C=C/c1cc(F)cc(F)c1)NCc1cc2c([nH]c3ccccc32)c(-c2cccc(F)c2)n1 [Compound 1d, (E)-3-(3,5-difluorophenyl)-N-((1-(3-fluorophenyl)-9H-pyrido[3,4-b]indol-3-yl)methyl)acrylamide]
IC50 (A549 (lung cancer)): 21 ± 1.2 nM
IC50 (B16 (melanoma)): 18.2 ± 0.3 nM
IC50 [1]: 36 ± 2.3 nM
IC50 (MCF-7 (breast cancer)): 16.5 ± 0.6 nM
IC50 (HeLa (cervical cancer)): 23.6 ± 0.5 nM

melting point: 228 to 230 °C
Compound: COc1ccc(OC)c(/C=C/C(=O)NCc2cc3c([nH]c4ccccc43)c(-c3cccc(F)c3)n2)c1 [Compound 1e, (E)-3-(2,5-dimethoxyphenyl)-N-((1-(3-fluorophenyl)-9H-pyrido[3,4-b]indol-3-yl)methyl)acrylamide]
IC50 (A549 (lung cancer)): 22.2 ± 1.1 nM
IC50 (B16 (melanoma)): 19.9 ± 0.7 nM
IC50 [1]: 39.6 ± 1.8 nM
IC50 (MCF-7 (breast cancer)): 17.5 ± 0.3 nM
IC50 (HeLa (cervical cancer)): 21.87 ± 0.2 nM

melting point: 248 to 250 °C
Compound: O=C(/C=C/c1ccc(Cl)cc1)NCc1cc2c([nH]c3ccccc32)c(-c2cccc(F)c2)n1 [Compound 1f, (E)-3-(4-chlorophenyl)-N-((1-(3-fluorophenyl)-9H-pyrido[3,4-b]indol-3-yl)methyl)acrylamide]
IC50 (A549 (lung cancer)): 19.6 ± 1.6 nM
IC50 (B16 (melanoma)): 18.2 ± 1.3 nM
IC50 [1]: 43.6 ± 1.1 nM
IC50 (MCF-7 (breast cancer)): 18.3 ± 0.8 nM
IC50 (HeLa (cervical cancer)): 19.2 ± 0.6 nM

melting point: 205 to 210 °C
Compound: COc1cc(/C=C/C(=O)NCc2cc3c([nH]c4ccccc43)c(-c3cccc(F)c3)n2)ccc1O [Compound 1g, (E)-N-((1-(3-fluorophenyl)-9H-pyrido[3,4-b]indol-3-yl)methyl)-3-(4-hydroxy-3-methoxyphenyl)acrylamide]
IC50 (A549 (lung cancer)): 22.4 ± 1.1 nM
IC50 (B16 (melanoma)): 19.4 ± 1.1 nM
IC50 [1]: 36.9 ± 1.9 nM
IC50 (MCF-7 (breast cancer)): 17.9 ± 0.7 nM
IC50 (HeLa (cervical cancer)): 23.9 ± 0.4 nM

melting point: 142 to 148 °C
Compound: O=C(/C=C/c1cccc(O)c1)NCc1cc2c([nH]c3ccccc32)c(-c2cccc(F)c2)n1 [Compound 1h, (E)-N-((1-(3-fluorophenyl)-9H-pyrido[3,4-b]indol-3-yl)methyl)-3-(3-hydroxyphenyl)acrylamide]
IC50 (A549 (lung cancer)): 23.4 ± 0.8 nM
IC50 (B16 (melanoma)): 24.9 ± 0.5 nM
IC50 [1]: 35.7 ± 2.2 nM
IC50 (MCF-7 (breast cancer)): 19.2 ± 0.6 nM
IC50 (HeLa (cervical cancer)): 27 ± 0.5 nM

Compound: COc1cc(/C=C/C(=O)NCc2cc3c([nH]c4ccccc43)c(-c3cc(OC)c(OC)c(OC)c3)n2)cc(OC)c1OC [Compound 2a, (E)-3-(3,4,5-trimethoxyphenyl)-N-((1-(3,4,5-trimethoxyphenyl)-9H-pyrido[3,4-b]indol-3-yl)methyl)acrylamide]
IC50 (A549 (lung cancer)): 21.3 ± 0.9 nM
IC50 (B16 (melanoma)): 17.2 ± 0.4 nM
IC50 [1]: 38.9 ± 2.5 nM
IC50 (MCF-7 (breast cancer)): 16.5 ± 1.1 nM
IC50 (HeLa (cervical cancer)): 23.5 ± 0.3 nM

Compound: COc1cc(-c2nc(CNC(=O)/C=C/c3ccc(Cl)c(Cl)c3)cc3c2[nH]c2ccccc23)cc(OC)c1OC [Compound 2b, (E)-3-(3,4-dichlorophenyl)-N-((1-(3,4,5-trimethoxyphenyl)-9H-pyrido[3,4-b]indol-3-yl)methyl)acrylamide]
IC50 (A549 (lung cancer)): 20.4 ± 0.7 nM
IC50 (B16 (melanoma)): 16.9 ± 0.7 nM
IC50 [1]: 39.2 ± 1.9 nM
IC50 (MCF-7 (breast cancer)): 17.5 ± 1.4 nM
IC50 (HeLa (cervical cancer)): 25.87 ± 0.2 nM

melting point: 214 to 218 °C
Compound: COc1cc(-c2nc(CNC(=O)/C=C/c3ccc(F)cc3)cc3c2[nH]c2ccccc23)cc(OC)c1OC [Compound 2c, (E)-3-(4-fluorophenyl)-N-((1-(3,4,5-trimethoxyphenyl)-9H-pyrido[3,4-b]indol-3-yl)methyl)acrylamide]
IC50 (A549 (lung cancer)): 18.7 ± 0.7 nM
IC50 (B16 (melanoma)): 17.2 ± 0.3 nM
IC50 [1]: 43 ± 1.1 nM
IC50 (MCF-7 (breast cancer)): 16.4 ± 0.8 nM
IC50 (HeLa (cervical cancer)): 20 ± 0.5 nM

melting point: 228 to 230 °C
Compound: COc1cc(-c2nc(CNC(=O)/C=C/c3cc(F)cc(F)c3)cc3c2[nH]c2ccccc23)cc(OC)c1OC [Compound 2d, (E)-3-(3,5-difluorophenyl)-N-((1-(3,4,5-trimethoxyphenyl)-9H-pyrido[3,4-b]indol-3-yl)methyl)acrylamide]
IC50 (A549 (lung cancer)): 21.6 ± 1.2 nM
IC50 (B16 (melanoma)): 24.1 ± 0.7 nM
IC50 [1]: 36.3 ± 1.7 nM
IC50 (MCF-7 (breast cancer)): 19.6 ± 1.1 nM
IC50 (HeLa (cervical cancer)): 23.8 ± 0.3 nM

melting point: 148 to 150 °C
Compound: COc1ccc(OC)c(/C=C/C(=O)NCc2cc3c([nH]c4ccccc43)c(-c3cc(OC)c(OC)c(OC)c3)n2)c1 [Compound 2e, (E)-3-(2,5-dimethoxyphenyl)-N-((1-(3,4,5-trimethoxyphenyl)-9H-pyrido[3,4-b]indol-3-yl)methyl)acrylamide]
IC50 (A549 (lung cancer)): 18.8 ± 1.4 nM
IC50 (B16 (melanoma)): 19.2 ± 1.4 nM
IC50 [1]: 39 ± 1.9 nM
IC50 (MCF-7 (breast cancer)): 17.2 ± 0.6 nM
IC50 (HeLa (cervical cancer)): 25.09 ± 0.2 nM

melting point: 148 to 150 °C
Compound: COc1cc(-c2nc(CNC(=O)/C=C/c3ccc(Cl)cc3)cc3c2[nH]c2ccccc23)cc(OC)c1OC [Compound 2f, (E)-3-(4-chlorophenyl)-N-((1-(3,4,5-trimethoxyphenyl)-9H-pyrido[3,4-b]indol-3-yl)methyl)acrylamide]
IC50 (A549 (lung cancer)): 18.9 ± 1.7 nM
IC50 (B16 (melanoma)): 18.7 ± 1.1 nM
IC50 [1]: 35.6 ± 2.1 nM
IC50 (MCF-7 (breast cancer)): 17.5 ± 0.9 nM
IC50 (HeLa (cervical cancer)): 26.8 ± 0.4 nM

melting point: 175 to 178 °C
Compound: COc1cc(/C=C/C(=O)NCc2cc3c([nH]c4ccccc43)c(-c3cc(OC)c(OC)c(OC)c3)n2)ccc1O [Compound 2g, (E)-3-(4-hydroxy-3-methoxyphenyl)-N-((1-(3,4,5-trimethoxyphenyl)-9H-pyrido[3,4-b]indol-3-yl)methyl)acrylamide]
IC50 (A549 (lung cancer)): 18.3 ± 1.4 nM
IC50 (B16 (melanoma)): 19 ± 0.9 nM
IC50 [1]: 43.1 ± 1.3 nM
IC50 (MCF-7 (breast cancer)): 17.6 ± 0.7 nM
IC50 (HeLa (cervical cancer)): 26 ± 0.3 nM

Compound: COc1ccc(-c2nc(CNC(=O)/C=C/c3ccc(Cl)cc3)cc3c2[nH]c2ccccc23)cc1 [Compound 3f, (E)-3-(4-chlorophenyl)-N-((1-(4-methoxyphenyl)-9H-pyrido[3,4-b]indol-3-yl)methyl)acrylamide]
IC50 (A549 (lung cancer)): 18.9 ± 1.1 nM
IC50 (B16 (melanoma)): 16.6 ± 0.5 nM
IC50 [1]: 38.3 ± 1.3 nM
IC50 (MCF-7 (breast cancer)): 14.1 nM
IC50 (HeLa (cervical cancer)): 21.6 ± 0.6 nM

Compound: COc1ccc(-c2nc(CNC(=O)/C=C/c3cccc(O)c3)cc3c2[nH]c2ccccc23)cc1 [Compound 3h, (E)-3-(3-hydroxyphenyl)-N-((1-(4-methoxyphenyl)-9H-pyrido[3,4-b]indol-3-yl)methyl)acrylamide]
IC50 (A549 (lung cancer)): 18.9 ± 1.4 nM
IC50 (B16 (melanoma)): 16.3 ± 0.3 nM
IC50 [1]: 37.2 ± 1.1 nM
IC50 (MCF-7 (breast cancer)): 13.8 nM
IC50 (HeLa (cervical cancer)): 22.3 ± 0.3 nM

From patent US10392385B2, “N-((1-phenyl-9H-pyrido[3,4-b]indol-3-yl)methyl)cinnamamides as potential anticancer agents and preparation thereof” (Council of Scientific & Industrial Research, priority 2016, dated 2019)
